Experimental data from ChEMBL document CHEMBL3352803, “Peripherally restricted CB1 receptor blockers” (Bioorg Med Chem Lett, 2013).
Each block holds one compound with its values, some of them ahead of it.

Columns and labels:
Cannabinoid receptor 1 [1] = target: T1, Cannabinoid receptor 1 (Homo sapiens, UniProt P21554); assay: Antagonist activity at human CB1 receptor
Brain [2] = assay: Drug uptake in rat brain; format: ADME, tissue-based; conditions: in vivo, read-out: Drug uptake
Nucleic Acid [3] = assay: Ratio of drug uptake in plasma to brain of po dosed mouse; format: ADME, organism-based; conditions: in vivo
Brain [4] = assay: Drug uptake in mouse brain; format: ADME, tissue-based; conditions: in vivo, read-out: Drug uptake
[5] = Lipophilicity, log D of the compound; format: physicochemical; conditions: octanol/water
[6] = Cmax in rat at 10 mg/kg; format: ADME, organism-based; set-up: dose 10 mg/kg; conditions: in vivo
[7] = Protein binding in rat plasma at 10 mg/kg; format: ADME, organism-based; set-up: dose 10 mg/kg; conditions: read-out: PPB
Cannabinoid receptor 1 [8] = target: T1, Cannabinoid receptor 1; assay: Binding affinity to human CB1 receptor
Mus musculus = assay: Ex vivo binding affinity at CB1 receptor in mouse at 10 mg/kg, iv; format: functional
Rattus norvegicus [9] = assay: Receptor occupancy at CB1 receptor in rat frontal cortex at 3 to 10 mg/kg, po; format: functional; conditions: dose mg/kg 3-10
Cannabinoid receptor 1 [10] = target: T2, Cannabinoid receptor 1 (Rattus norvegicus, UniProt P20272); assay: Antagonist activity at rat CB1 receptor
Cannabinoid receptor 1 [11] = target: T2, Cannabinoid receptor 1; assay: Inverse agonist activity at rat CB1 receptor
Cannabinoid receptor 1 [12] = target: T1, Cannabinoid receptor 1; assay: Inverse agonist activity at human CB1 receptor
Cannabinoid receptor 1 [13] = target: T1, Cannabinoid receptor 1; assay: Binding affinity at CB1 receptor (unknown origin)
Nucleic Acid [14] = assay: Ratio of drug uptake in plasma to brain of C57BL/6J mouse; format: ADME; conditions: in vivo
Rattus norvegicus [15] = species: Rattus norvegicus; assay: Receptor occupancy at CB1 receptor in diet-induced obese rat assessed as weight loss; format: functional
Rattus norvegicus [16] = assay: Receptor occupancy at CB1 receptor in rat frontal cortex at 10 mg/kg, po; format: functional

T1 sequence (P21554 whole entry): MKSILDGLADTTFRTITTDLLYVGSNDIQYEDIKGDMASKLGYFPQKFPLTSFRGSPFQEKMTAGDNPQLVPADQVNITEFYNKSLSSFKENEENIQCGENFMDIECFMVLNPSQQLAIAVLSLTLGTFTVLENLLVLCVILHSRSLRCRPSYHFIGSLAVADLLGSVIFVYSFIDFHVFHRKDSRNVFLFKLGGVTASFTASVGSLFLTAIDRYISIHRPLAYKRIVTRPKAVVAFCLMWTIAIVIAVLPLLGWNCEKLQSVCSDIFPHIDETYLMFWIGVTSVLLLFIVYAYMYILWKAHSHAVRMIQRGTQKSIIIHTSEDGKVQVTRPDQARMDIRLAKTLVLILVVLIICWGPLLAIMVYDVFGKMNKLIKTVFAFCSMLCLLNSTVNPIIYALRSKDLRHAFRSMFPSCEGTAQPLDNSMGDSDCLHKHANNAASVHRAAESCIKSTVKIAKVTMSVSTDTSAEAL
T2 sequence (P20272 whole entry): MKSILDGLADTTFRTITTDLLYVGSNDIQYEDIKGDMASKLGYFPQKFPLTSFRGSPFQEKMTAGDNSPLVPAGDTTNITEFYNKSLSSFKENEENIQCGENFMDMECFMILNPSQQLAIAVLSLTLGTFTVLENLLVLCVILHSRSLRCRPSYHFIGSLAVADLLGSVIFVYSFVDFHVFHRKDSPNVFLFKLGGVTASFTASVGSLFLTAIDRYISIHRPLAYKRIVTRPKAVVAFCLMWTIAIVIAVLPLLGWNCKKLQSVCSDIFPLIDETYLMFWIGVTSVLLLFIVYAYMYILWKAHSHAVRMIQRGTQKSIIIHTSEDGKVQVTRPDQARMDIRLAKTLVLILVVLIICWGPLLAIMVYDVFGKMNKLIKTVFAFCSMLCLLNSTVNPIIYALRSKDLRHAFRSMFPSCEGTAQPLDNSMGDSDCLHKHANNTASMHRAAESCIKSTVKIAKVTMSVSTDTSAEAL

Compound: CS(=O)(=O)NCCCn1c(C(=O)N2CCC(C(N)=O)(N3CCC(F)(F)CC3)CC2)cc(-c2ccc(Cl)cc2Cl)c1-c1ccc(Cl)cc1
- Activity (Mus musculus): 28%

Compound: Cc1c(C(=O)NN2CCCCC2)nn(-c2ccc(Cl)cc2Cl)c1-c1ccc(Cl)cc1 [RIMONABANT]
- Occ (Rattus norvegicus [9]): >65%

Compound: CCCCCCc1nc(-c2ccc(Cl)cc2)n(-c2ccc(Cl)cc2Cl)n1
- IC50 (Cannabinoid receptor 1 [11]): 690 nM
- IC50 (Cannabinoid receptor 1 [12]): 631 nM

Compound: C[C@H](NC(=O)C(C)(C)Oc1ccc(C(F)(F)F)cn1)[C@@H](Cc1ccc(Cl)cc1)c1cccc(C#N)c1 [TARANABANT]
- Occ (Rattus norvegicus [15]): 30%

Compound: CN/C(=N\S(=O)(=O)c1ccc(Cl)cc1)N1C[C@H](c2ccccc2)C(c2ccc(Cl)cc2)=N1 [IBIPINABANT]
- Occ (Rattus norvegicus [16]): 11%

Continued, values first:

- Ki (Cannabinoid receptor 1 [1]): 1 nM
- concentration (Brain [2]): 50 nM
- Ratio (Nucleic Acid [3]): 33
- concentration (Brain [4]): 50 nM
Compound: Cc1c(C(=O)NN2CCS(=O)(=O)CC2)nn(-c2ccc(Cl)cc2Cl)c1-c1ccc(C#CCCC#N)cc1

- logD [5]: 3.66
- Cmax [6]: 430 nM
- fraction unbound [7]: < 0.01
- IC50 (Cannabinoid receptor 1 [8]): 10 nM
- Ki (Cannabinoid receptor 1 [8]): 9 nM
Compound: CC1(C)C(=O)N(c2ccc(F)c(C(F)(F)F)c2)C(=O)C1Cc1ccc(F)cc1NC(=O)Nc1ccc(S(N)(=O)=O)cc1 (stereo not given)

- IC50 (Cannabinoid receptor 1 [10]): 159 nM
Compound: Cc1c(/C=C/C(=O)NCc2cccc(Cl)c2)nn(-c2ccc(Cl)cc2Cl)c1-c1ccc(Cl)cc1

- IC50 (Cannabinoid receptor 1 [12]): 8.5 nM
- Ki (Cannabinoid receptor 1 [13]): 3 nM
- Ratio (Nucleic Acid [14]): 33
- Ratio (Nucleic Acid [3]): 1.2
Compound: CCc1c(C(=O)NN2CCCCC2)nn(-c2ccc(Cl)cc2Cl)c1-c1ccc(C#Cc2ccc(C(F)(F)F)cc2)s1
